Test results reported in BindingDB's records for doi:10.1016/j.bmcl.2007.09.043 (Amgen, 2007).

Biological target: T1, N-formyl peptide receptor 2 (Homo sapiens, UniProt P25090)
T1 sequence (P25090 whole entry): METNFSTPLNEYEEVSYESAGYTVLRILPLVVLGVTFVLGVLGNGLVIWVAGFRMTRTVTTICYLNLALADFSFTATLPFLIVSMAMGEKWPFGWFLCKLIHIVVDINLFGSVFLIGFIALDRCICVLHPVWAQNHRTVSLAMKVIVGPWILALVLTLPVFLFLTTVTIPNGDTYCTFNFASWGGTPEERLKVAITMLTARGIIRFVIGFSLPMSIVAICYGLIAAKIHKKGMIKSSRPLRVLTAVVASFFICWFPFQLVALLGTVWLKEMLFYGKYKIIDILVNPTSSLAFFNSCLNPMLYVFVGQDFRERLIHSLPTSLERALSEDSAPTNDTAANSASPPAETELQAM
Experiment: hFPRL1-Mediated Ca2+ Mobilization Assay
Conditions: pH 7.2; 37 °C
Procedure: hFPRL 1 activity was assayed using an aequorin-based bioluminescence assay (Ca2+ flux). EC50 values have been determined by Ca2+ flux in CHO recombinant cells co-expressing hFPRL1, G (alpha15) protein, and aequorin.

SMILES: COc1ccc2[nH]c(C(=O)N3CCC(n4c(=O)[nH]c5ccccc54)CC3)cc2c1 [1-{1-[(5-methoxy-1H-indol-2-yl)carbonyl]piperidin-4-yl}-1,3-dihydro-2H-benzimidazol-2-one]
- EC50: 6.39 µM
